Assay results published in EP4806891A1 (Kangbaida (Sichuan) Biotechnology Co., Ltd., priority 2023, dated 2025).
pIC50: −log10 of the molar value.

Each compound was assayed against T1, HEK-Blue-hTLR7 cells (Homo sapiens, UniProt Q9NYK1) (assay: HEK-Blue-hTLR7 cell inhibition assay). Details: R848 0.8 µM, 16 h, OD 620 nm, read-out: TLR7 IC50.
T1 construct: expressed in transfected cells; host or cells: HEK-Blue-hTLR7 cells (HEK293-derived reporter line)
T1 sequence (Q9NYK1 27-1049): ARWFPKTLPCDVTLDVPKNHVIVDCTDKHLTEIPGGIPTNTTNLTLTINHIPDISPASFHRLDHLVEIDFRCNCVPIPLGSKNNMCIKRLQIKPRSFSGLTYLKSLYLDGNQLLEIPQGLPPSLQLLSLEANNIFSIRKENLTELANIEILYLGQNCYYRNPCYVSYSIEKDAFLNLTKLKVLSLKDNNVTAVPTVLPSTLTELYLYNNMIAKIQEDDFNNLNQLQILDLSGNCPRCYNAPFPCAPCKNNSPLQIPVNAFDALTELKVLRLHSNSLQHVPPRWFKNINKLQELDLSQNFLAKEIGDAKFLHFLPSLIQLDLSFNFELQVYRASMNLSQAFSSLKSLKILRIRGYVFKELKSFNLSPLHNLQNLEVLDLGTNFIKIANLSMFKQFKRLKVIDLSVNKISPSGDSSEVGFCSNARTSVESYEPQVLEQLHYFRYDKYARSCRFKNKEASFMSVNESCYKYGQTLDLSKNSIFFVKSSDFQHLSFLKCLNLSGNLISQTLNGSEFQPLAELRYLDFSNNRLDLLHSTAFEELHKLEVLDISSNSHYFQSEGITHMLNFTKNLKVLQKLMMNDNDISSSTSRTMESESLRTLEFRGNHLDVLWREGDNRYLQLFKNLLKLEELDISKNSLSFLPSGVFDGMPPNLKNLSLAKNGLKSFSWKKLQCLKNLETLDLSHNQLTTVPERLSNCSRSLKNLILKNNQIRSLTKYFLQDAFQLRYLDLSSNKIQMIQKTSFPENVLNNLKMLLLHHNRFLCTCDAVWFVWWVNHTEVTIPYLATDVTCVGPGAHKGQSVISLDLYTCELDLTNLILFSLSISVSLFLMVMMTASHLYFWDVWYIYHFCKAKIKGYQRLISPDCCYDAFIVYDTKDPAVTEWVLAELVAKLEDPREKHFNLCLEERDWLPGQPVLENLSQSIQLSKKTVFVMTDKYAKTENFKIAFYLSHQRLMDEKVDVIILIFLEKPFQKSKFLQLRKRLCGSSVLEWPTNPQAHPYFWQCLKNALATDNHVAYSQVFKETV
Type: cell-based
Summary of the method: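 Cells were pre-incubated 4 h, then co-treated 16 h at 37 °C with compound (10 doses, 0.5–10000 nM final) plus R848 (0.8 µM for TLR7, 3 µM for TLR8) or ODN2006 (1 µM, TLR9). Reporter OD620 gave inhibition relative to DMSO blank and agonist-only controls; IC50 came from curve fitting.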
`CN1CCC(c2nnc([C@]34CN(c5ccc(C#N)c6ncnn56)C[C@@]3(C(F)(F)F)C4)o2)CC1` [Compound 91, 5-((1S,5R)-1-(5-(1-methylpiperidin-4-yl)-1,3,4-oxadiazol-2-yl)-5-(trifluoromethyl)-3-azabicyclo[3.1.0]hexan-3-yl)-[1,2,4]triazolo[1,5-a]pyridine-8-carbonitrile] gave a pIC50 of over 7.00. `CN1CCC(c2nnc([C@]34CN(c5ccc(C#N)n6nccc56)C[C@@]3(C(F)(F)F)C4)o2)CC1` [Compound 59, 4-((1S,5R)-1-(5-(1-methylpiperidin-4-yl)-1,3,4-oxadiazol-2-yl)-5-(trifluoromethyl)-3-azabicyclo[3.1.0]hexan-3-yl)pyrazolo[1,5-a]pyridine-7-carbonitrile] gave a pIC50 of over 7.00. `N#Cc1ccc(N2C[C@]3(c4nnc(C56CCC(N)(CC5)CC6)o4)C[C@]3(C(F)(F)F)C2)c2cccnc12` [Compound 52, 5-((1S,5R)-1-(5-(4-aminobicyclo[2.2.2]octan-1-yl)-1,3,4-oxadiazol-2-yl)-5-(trifluoromethyl)-3-azabicyclo[3.1.0]hexan-3-yl)quinoline-8-carbonitrile] was tested, and the pIC50 was over 7.00. `N#Cc1ccc(N2C[C@]3(c4nnc(C56CCC(NC(=O)[C@@H]7COCCN7)(CC5)CC6)o4)C[C@]3(C(F)(F)F)C2)c2cccnc12` [Compound 54, (S)-N-(4-(5-((1S,5R)-3-(8-cyanoquinolin-5-yl)-5-(trifluoromethyl)-3-azabicyclo[3.1.0]hexan-1-yl)-1,3,4-oxadiazol-2-yl)bicyclo[2.2.2]octan-1-yl)morpholine-3-carboxamide] gave a pIC50 of over 7.00. `CN1CC2(CC(c3nnc([C@]45CN(c6ccc(C#N)c7ncccc67)C[C@@]4(C(F)(F)F)C5)o3)C2)C1` [Compound 19, 5-((1S,5R)-1-(5-(2-methyl-2-azaspiro[3.3]heptan-6-yl)-1,3,4-oxadiazol-2-yl)-5-(trifluoromethyl)-3-azabicyclo[3.1.0]hexan-3-yl)quinoline-8-carbonitrile] showed a pIC50 of over 7.00. `N#Cc1ccc(N2C[C@]3(c4nnc(CN5CCOCC5)o4)C[C@]3(C(F)(F)F)C2)c2cccnc12` [Compound 40, 5-((1S,5R)-1-(5-(morpholinomethyl)-1,3,4-oxadiazol-2-yl)-5-(trifluoromethyl)-3-azabicyclo[3.1.0]hexan-3-yl)quinoline-8-carbonitrile] was tested, and the pIC50 was over 6.00. In the case of `N#Cc1ccc(N2C[C@]3(c4nnc(N5CCOCC5)o4)C[C@]3(C(F)(F)F)C2)c2cccnc12` [Compound 27, 5-((1S,5R)-1-(5-morpholino-1,3,4-oxadiazol-2-yl)-5-(trifluoromethyl)-3-azabicyclo[3.1.0]hexan-3-yl)quinoline-8-carbonitrile], the pIC50 was over 7.00. Work on `CN1CCC(n2cnc([C@]34CN(c5ccc(C#N)c6ncccc56)C[C@@]3(C(F)(F)F)C4)n2)CC1` [Compound 23, 5-((1S,5R)-1-(1-(1-methylpiperidin-4-yl)-1H-1,2,4-triazol-3-yl)-5-(trifluoromethyl)-3-azabicyclo[3.1.0]hexan-3-yl)quinoline-8-carbonitrile] yielded a pIC50 of over 7.00. Compound `CN1CCC(c2nnc([C@]34CN(c5ccc(C(F)(F)F)n6nccc56)C[C@@]3(C(F)(F)F)C4)o2)CC1` [Compound 87, 2-(1-methylpiperidin-4-yl)-5-((1S,5R)-5-(trifluoromethyl)-3-(7-(trifluoromethyl)pyrazolo[1,5-a]pyridin-4-yl)-3-azabicyclo[3.1.0]hexan-1-yl)-1,3,4-oxadiazole] has a pIC50 of over 7.00. Compound `CN1CC(Cc2nnc([C@]34CN(c5ccc(C#N)c6ncccc56)C[C@@]3(C(F)(F)F)C4)o2)C1` [Compound 36, 5-((1S,5R)-1-(5-((1-methylazetidin-3-yl)methyl)-1,3,4-oxadiazol-2-yl)-5-(trifluoromethyl)-3-azabicyclo[3.1.0]hexan-3-yl)quinoline-8-carbonitrile] has a pIC50 of over 7.00. `FC(F)(F)Oc1ccc(N2C[C@]3(c4nnc(C5(F)CCNCC5)o4)C[C@]3(C(F)(F)F)C2)c2cccnc12` [Compound 96, 2-(4-fluoropiperidin-4-yl)-5-((1S,5R)-3-(8-(trifluoromethoxy)quinolin-5-yl)-5-(trifluoromethyl)-3-azabicyclo[3.1.0]hexan-1-yl)-1,3,4-oxadiazole] showed a pIC50 of over 7.00. `N#Cc1ccc(N2C[C@]3(c4nnc(C5(F)CCNCC5)o4)C[C@]3(C(F)(F)F)C2)c2cccnc12` [Compound 60, 5-((1S,5R)-1-(5-(4-fluoropiperidin-4-yl)-1,3,4-oxadiazol-2-yl)-5-(trifluoromethyl)-3-azabicyclo[3.1.0]hexan-3-yl)quinoline-8-carbonitrile] gave a pIC50 of over 7.00. `CN1CCC(O)(c2nnc([C@]34CN(c5ccc(C(F)(F)F)c6ncccc56)C[C@@]3(C(F)(F)F)C4)o2)CC1` [Compound 94, 1-methyl-4-(5-((1S,5R)-5-(trifluoromethyl)-3-(8-(trifluoromethyl)quinolin-5-yl)-3-azabicyclo[3.1.0]hexan-1-yl)-1,3,4-oxadiazol-2-yl)piperidin-4-ol] gave a pIC50 of over 7.00. In the case of `CN1CC2CC1CC2c1nnc([C@]23CN(c4ccc(C#N)c5ncccc45)C[C@@]2(C(F)(F)F)C3)o1` (stereo partly drawn) [Compound 14, 5-((1S,5R)-1-(5-(2-methyl-2-azabicyclo[2.2.1]heptan-5-yl)-1,3,4-oxadiazol-2-yl)-5-(trifluoromethyl)-3-azabicyclo[3.1.0]hexan-3-yl)quinoline-8-carbonitrile], the pIC50 was over 7.00. With `N#Cc1ccc(N2C[C@]3(c4nnc([C@H]5CN(CC(N)=O)CCO5)o4)C[C@]3(C(F)(F)F)C2)c2cccnc12` [Compound 56, 2-((R)-2-(5-((1S,5R)-3-(8-cyanoquinolin-5-yl)-5-(trifluoromethyl)-3-azabicyclo[3.1.0]hexan-1-yl)-1,3,4-oxadiazol-2-yl)morpholino)acetamide] the pIC50 was over 7.00. Compound `CN1CCC(F)(c2nnc([C@]34CN(c5ccc(C#N)c6ncccc56)C[C@@]3(C(F)(F)F)C4)o2)C1` (stereo partly drawn) [Compound 47, 5-((1S,5R)-1-(5-(3-fluoro-1-methylpyrrolidin-3-yl)-1,3,4-oxadiazol-2-yl)-5-(trifluoromethyl)-3-azabicyclo[3.1.0]hexan-3-yl)quinoline-8-carbonitrile] has a pIC50 of over 7.00. For `N#Cc1ccc(N2C[C@]3(c4nnc(C5CCN(CC(N)=O)CC5)o4)C[C@]3(C(F)(F)F)C2)c2cccnc12` [Compound 17, 2-(4-(5-((1S,5R)-3-(8-cyanoquinolin-5-yl)-5-(trifluoromethyl)-3-azabicyclo[3.1.0]hexan-1-yl)-1,3,4-oxadiazol-2-yl)piperidin-1-yl)acetamide], the pIC50 was over 7.00. Work on `CN1CCC(c2nnc([C@]34CN(c5ccc(OC(F)(F)F)c6ncccc56)C[C@@]3(C(F)(F)F)C4)o2)CC1` [Compound 64, 2-(1-methylpiperidin-4-yl)-5-((1S,5R)-5-(trifluoromethyl)-3-(8-(trifluoromethoxy)quinolin-5-yl)-3-azabicyclo[3.1.0]hexan-1-yl)-1,3,4-oxadiazole] yielded a pIC50 of over 7.00. `CN1CC(F)(c2nnc([C@]34CN(c5ccc(C#N)c6ncccc56)C[C@@]3(C(F)(F)F)C4)o2)C1` [Compound 49, 5-((1S,5R)-1-(5-(3-fluoro-1-methylazetidin-3-yl)-1,3,4-oxadiazol-2-yl)-5-(trifluoromethyl)-3-azabicyclo[3.1.0]hexan-3-yl)quinoline-8-carbonitrile] showed a pIC50 of over 7.00. `CN(C)[C@H]1CC[C@H](c2nnc([C@]34CN(c5ccc(C#N)c6ncccc56)C[C@@]3(C(F)(F)F)C4)o2)CC1` [Compound 21, 5-((1S,5R)-1-(5-((1R,4S)-4-(dimethylamino)cyclohexyl)-1,3,4-oxadiazol-2-yl)-5-(trifluoromethyl)-3-azabicyclo[3.1.0]hexan-3-yl)quinoline-8-carbonitrile] was tested, and the pIC50 was over 7.00. For `CN1[C@@H]2CC[C@H]1C[C@H](c1nnc([C@]34CN(c5ccc(C#N)c6ncccc56)C[C@@]3(C(F)(F)F)C4)o1)C2` [Compound 11, 5-((1S,5R)-1-(5-((1R,3S,5S)-8-methyl-8-azabicyclo[3.2.1]octan-3-yl)-1,3,4-oxadiazol-2-yl)-5-(trifluoromethyl)-3-azabicyclo[3.1.0]hexan-3-yl)quinoline-8-carbonitrile], the pIC50 was over 7.00. `CN1CCC(Oc2nnc([C@]34CN(c5ccc(C(F)(F)F)c6ncccc56)C[C@@]3(C(F)(F)F)C4)o2)CC1` [Compound 92, 2-((1-methylpiperidin-4-yl)oxy)-5-((1S,5R)-5-(trifluoromethyl)-3-(8-(trifluoromethyl)quinolin-5-yl)-3-azabicyclo[3.1.0]hexan-1-yl)-1,3,4-oxadiazole] showed a pIC50 of over 7.00.
